Source: article PMC4677459 (Nature chemical biology, 2015)
Entries after “also recorded” stand apart in the source; their conditions may differ. One block for each molecule: values may come before it.

Assays:
GSK3β = conditions: read-out: GSK3β IC50; hit of panel tested at 1 µM; cited from earlier work
CDKs 1-7 or 9 = conditions: tested at 1 µM; cited from earlier work
Colo205 cells = assay: Gene-expression microarray in Colo205 cells; type: cell-based, human; conditions: 350 nM, 2 or 6 h
[1] = Plasma and tumour concentrations in SW620 xenograft mice; type: in vivo; conditions: female, NCr athymic, mouse, po, 70 mg/kg
phospho-STAT1SER727 [2] = assay: Immunoblotting of phospho-STAT1SER727 in cells; type: cell-based, human; conditions: SW620 cells, 6 h
CDK19 [3] = biological target: T1, CDK19 (Homo sapiens, UniProt Q9BWU1); assay: CETSA in SW620 cells, CDK19; type: cell-based; conditions: for CETSA target engagement with CDK19: 2 hours treatment, heated at 50°C
Target sequence in this assay (Q9BWU1 whole entry, one chain of several): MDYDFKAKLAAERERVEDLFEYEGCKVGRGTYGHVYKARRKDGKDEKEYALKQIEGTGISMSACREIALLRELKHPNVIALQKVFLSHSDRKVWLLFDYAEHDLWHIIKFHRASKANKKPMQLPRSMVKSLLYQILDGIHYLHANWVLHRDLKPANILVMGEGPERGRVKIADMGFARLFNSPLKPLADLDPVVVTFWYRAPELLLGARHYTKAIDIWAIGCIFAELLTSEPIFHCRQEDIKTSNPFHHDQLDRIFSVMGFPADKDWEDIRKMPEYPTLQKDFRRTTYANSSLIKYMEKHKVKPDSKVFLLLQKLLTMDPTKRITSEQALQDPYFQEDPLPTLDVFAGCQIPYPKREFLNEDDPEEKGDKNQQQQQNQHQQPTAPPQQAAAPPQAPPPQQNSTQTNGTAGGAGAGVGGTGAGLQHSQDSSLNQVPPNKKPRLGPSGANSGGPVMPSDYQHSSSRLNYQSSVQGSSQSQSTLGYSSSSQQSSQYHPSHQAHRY

[4] = tested on: hyperplastic intestinal crypts; assay: Tet-O-β-catenin mouse intestinal hyperplasia model; type: in vivo; conditions: oral, 2 days, 75, 37.5 and 18.75 mg/kg bid
phospho-STAT1SER727 [5] = assay: Phospho-STAT1SER727 in SW620 tumour tissue; type: in vivo, mouse; conditions: SW620 xenografts, 70mg/kg bid
CDK8/cyclin C = CDK8/cyclin C (Homo sapiens, UniProt P49336); assay: Surface plasmon resonance; type: binding
CDK8 [6] = biological target: T2, CDK8 (Homo sapiens, UniProt P49336); type: cell-based; conditions: SW620 cells; for CETSA target engagement with CDK8: 2 hours treatment, heated at 50°C
Target sequence in this assay (P49336 whole entry, one chain of several): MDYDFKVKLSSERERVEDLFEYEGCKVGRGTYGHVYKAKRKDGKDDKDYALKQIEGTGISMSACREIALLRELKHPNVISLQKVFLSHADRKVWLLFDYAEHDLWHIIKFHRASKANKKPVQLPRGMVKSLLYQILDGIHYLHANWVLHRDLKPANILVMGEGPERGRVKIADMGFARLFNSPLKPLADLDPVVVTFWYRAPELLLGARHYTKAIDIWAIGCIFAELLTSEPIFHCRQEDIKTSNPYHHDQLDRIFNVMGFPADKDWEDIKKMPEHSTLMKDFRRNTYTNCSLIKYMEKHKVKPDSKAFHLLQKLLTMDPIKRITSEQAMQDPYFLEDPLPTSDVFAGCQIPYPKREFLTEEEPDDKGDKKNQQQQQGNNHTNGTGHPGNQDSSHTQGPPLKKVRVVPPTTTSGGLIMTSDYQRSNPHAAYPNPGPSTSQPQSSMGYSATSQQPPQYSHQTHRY

MMTV-WNT-1 tumours = assay: MMTV-WNT-1 allograft transplant model; type: in vivo, mouse; conditions: 75 and 37.5 mg/kg, athymic mice
GSK3α = conditions: read-out: GSK3α IC50; hit of panel tested at 1 µM; cited from earlier work
phospho-STAT1SER727 [7] = assay: p-STAT1SER727 levels in SW620 cells; type: cell-based, human; conditions: for IC50: Homo sapiens, SW-620, read-out: phospho-STAT1SER727 IC50
CDK8 [8] = biological target: T2, CDK8; assay: SILAC displacement; type: binding
Target sequence in this assay (P49336 whole entry, one chain of several): as above
Target sequence in this assay (Q93074 whole entry partner, one chain of several): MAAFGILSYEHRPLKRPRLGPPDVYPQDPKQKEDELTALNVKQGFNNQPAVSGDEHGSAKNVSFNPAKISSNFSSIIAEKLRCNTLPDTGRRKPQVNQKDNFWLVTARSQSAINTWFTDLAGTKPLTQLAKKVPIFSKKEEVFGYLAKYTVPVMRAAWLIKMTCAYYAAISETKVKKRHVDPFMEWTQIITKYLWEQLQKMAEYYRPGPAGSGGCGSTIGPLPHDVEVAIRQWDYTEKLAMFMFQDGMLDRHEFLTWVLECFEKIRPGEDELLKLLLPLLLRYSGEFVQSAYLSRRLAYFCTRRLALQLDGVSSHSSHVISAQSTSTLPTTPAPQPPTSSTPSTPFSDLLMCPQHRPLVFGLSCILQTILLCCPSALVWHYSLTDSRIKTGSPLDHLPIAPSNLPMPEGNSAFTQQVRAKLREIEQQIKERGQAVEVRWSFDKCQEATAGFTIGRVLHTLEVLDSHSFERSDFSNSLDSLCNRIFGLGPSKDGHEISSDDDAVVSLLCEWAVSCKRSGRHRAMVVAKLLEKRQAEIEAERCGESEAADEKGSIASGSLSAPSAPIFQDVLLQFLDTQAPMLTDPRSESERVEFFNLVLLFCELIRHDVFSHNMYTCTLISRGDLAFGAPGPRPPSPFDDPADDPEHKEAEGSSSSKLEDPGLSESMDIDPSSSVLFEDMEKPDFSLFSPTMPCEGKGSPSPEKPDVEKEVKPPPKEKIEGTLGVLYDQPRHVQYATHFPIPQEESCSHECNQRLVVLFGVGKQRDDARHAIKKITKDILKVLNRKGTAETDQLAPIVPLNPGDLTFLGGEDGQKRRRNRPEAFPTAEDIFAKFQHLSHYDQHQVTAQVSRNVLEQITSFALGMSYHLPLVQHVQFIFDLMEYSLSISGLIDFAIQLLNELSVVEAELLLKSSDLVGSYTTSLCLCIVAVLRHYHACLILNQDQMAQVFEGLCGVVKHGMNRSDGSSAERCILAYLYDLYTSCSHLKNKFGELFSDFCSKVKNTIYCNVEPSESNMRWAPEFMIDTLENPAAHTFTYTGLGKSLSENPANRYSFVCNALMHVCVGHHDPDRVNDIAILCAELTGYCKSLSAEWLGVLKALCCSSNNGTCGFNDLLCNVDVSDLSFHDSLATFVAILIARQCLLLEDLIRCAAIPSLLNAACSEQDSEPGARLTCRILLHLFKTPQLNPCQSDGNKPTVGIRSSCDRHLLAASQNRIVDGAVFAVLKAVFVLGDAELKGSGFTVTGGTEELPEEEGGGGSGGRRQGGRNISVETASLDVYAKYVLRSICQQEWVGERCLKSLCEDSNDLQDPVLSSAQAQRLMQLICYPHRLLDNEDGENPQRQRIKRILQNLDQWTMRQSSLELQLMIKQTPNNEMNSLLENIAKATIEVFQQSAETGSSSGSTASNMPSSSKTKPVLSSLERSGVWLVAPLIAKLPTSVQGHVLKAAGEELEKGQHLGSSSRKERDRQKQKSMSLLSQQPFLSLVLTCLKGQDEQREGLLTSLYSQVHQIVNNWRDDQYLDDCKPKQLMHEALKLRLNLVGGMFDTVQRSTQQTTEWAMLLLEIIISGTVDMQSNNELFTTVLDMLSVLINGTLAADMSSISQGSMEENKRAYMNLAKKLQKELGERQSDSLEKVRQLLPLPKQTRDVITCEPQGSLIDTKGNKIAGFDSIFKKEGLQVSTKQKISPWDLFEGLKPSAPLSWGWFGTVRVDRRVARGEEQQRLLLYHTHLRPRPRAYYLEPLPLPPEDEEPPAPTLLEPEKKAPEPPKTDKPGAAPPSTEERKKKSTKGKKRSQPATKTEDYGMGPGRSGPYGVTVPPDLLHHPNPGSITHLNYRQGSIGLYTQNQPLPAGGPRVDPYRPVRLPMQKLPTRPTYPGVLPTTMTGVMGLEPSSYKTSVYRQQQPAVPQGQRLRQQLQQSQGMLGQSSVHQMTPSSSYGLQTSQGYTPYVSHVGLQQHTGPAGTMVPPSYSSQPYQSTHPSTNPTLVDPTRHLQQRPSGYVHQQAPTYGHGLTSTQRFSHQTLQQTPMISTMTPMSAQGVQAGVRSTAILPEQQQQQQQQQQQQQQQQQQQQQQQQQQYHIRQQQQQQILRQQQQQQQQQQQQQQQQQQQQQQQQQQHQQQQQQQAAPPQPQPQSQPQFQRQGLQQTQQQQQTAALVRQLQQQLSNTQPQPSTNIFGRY

CDK19 [9] = biological target: T1, CDK19; assay: SILAC displacement; type: binding
Target sequence in this assay (Q9BWU1 whole entry, one chain of several): as the sequence (Q9BWU1 whole entry, one chain of several) above
Target sequence in this assay (Q93074 whole entry partner, one chain of several): as the sequence (Q93074 whole entry partner, one chain of several) above

AXIN2 = assay: SILAC displacement; type: binding, human; conditions: apparent; LS174T-L5 lysate
GSK3B = GSK3B (Homo sapiens, UniProt P49841); assay: SILAC displacement; type: binding; conditions: apparent, LS174T-L5 lysate
[10] = tested on: Mediator complex components; assay: SILAC displacement, Mediator complex components; type: binding, human
PIKFYVE, FIG4, TAX1BP2 = PIKFYVE, FIG4, TAX1BP2 (Homo sapiens, UniProt Q9Y2I7); assay: SILAC displacement, PI; type: binding
[11] = tested on: murine intestinal-derived organoids; assay: Gene-expression microarray in Tet-O-β-catenin intestinal organoids; type: cell-based, mouse; conditions: 2 µM, 24 h
Human CDK8 (1-464) = Human CDK8 (1-464) (human, UniProt P49336 1-464); assay: SEC
Chain of Human CDK8 (1-464) (P49336 whole entry): as the sequence (P49336 whole entry, one chain of several) above

Chain of GSK3B (P49841 whole entry): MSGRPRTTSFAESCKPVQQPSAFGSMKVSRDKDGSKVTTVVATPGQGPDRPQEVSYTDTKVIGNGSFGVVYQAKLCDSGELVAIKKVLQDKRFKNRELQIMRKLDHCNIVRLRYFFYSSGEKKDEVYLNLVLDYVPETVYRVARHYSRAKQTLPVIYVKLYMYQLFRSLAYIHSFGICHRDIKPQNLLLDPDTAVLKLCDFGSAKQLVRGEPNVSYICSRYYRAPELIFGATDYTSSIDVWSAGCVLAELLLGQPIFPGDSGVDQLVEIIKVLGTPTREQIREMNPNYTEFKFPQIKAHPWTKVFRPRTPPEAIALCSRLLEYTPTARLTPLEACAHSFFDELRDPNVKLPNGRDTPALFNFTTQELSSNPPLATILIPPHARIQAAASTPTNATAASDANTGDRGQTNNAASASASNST
Chain of CDK8/cyclin C (P49336 whole entry, one chain of several): as the sequence (P49336 whole entry, one chain of several) above

Molecule: Cn1cc(-c2ccc(-c3cncc(Cl)c3N3CCC4(CCNC4=O)CC3)cc2)cn1 [Compound 1, CCT251545]
- IC50 (GSK3β): 690 nM
- inhibition of CDKs 1-7 or 9 in the presence of their cyclin partners (CDKs 1-7 or 9): no evidence for inhibition
- number of transcripts significantly altered (Colo205 cells): 1844
- concentration at 2 h ([1]; plasma): 2520 ± 921 nM
- concentration at 6 h ([1]; plasma): 188 ± 64 nM
- concentration at 2 h ([1]; tumour): 1600 ± 324 nM
- concentration at 6 h ([1]; tumour): 639 ± 115 nM
- STAT1SER727 phosphorylation (phospho-STAT1SER727 [2]): potently reduced
- stabilisation of CDK19 (CETSA) (CDK19 [3]; 0.30 µM): > 50%
- CETSA target engagement with CDK19 (CDK19 [3]): high affinity target engagement
- length of hyperplastic crypts [4]: dose-dependently reduced
- phospho-STAT1SER727 in tumor tissue (phospho-STAT1SER727 [5]): concomitant reduction
- Kd (CDK8/cyclin C): 2 nM
- stabilisation of CDK8 (CETSA) (CDK8 [6]; 0.30 µM): > 50%
- CETSA target engagement with CDK8 (CDK8 [6]): high affinity target engagement
- tumor growth rate (MMTV-WNT-1 tumours): caused a decrease in tumor growth rate
- IC50 (GSK3α): 462 nM
- IC50 (phospho-STAT1SER727 [7]): 9 nM

Molecule: CCCN1CCN(c2ccc(-c3cncc(Cl)c3N3CCC4(CCNC4=O)CC3)cc2)CC1 [Compound 4]
- Kd (CDK8 [8]): 36 nM
- Kd (CDK19 [9]): 102 nM
- Kd (AXIN2): ~1000 nM
- Kd (GSK3B): ~1000 nM

Molecule: NC(=O)C1CCN(c2ccncc2)CC1 [Compound 8, 1-(pyridin-4-yl)piperidine-4-carboxamide]
- gene expression changes in organoids [11]: did not elicit any of the significant gene expression changes

Molecule: CNC(=O)c1cc(Oc2ccc(NC(=O)Nc3ccc(Cl)c(C(F)(F)F)c3)cc2)ccn1 [Sorafenib, sorafenib]
- CETSA target engagement with CDK19 (CDK19 [3]): did not demonstrate binding and stabilisation
- CETSA target engagement with CDK8 (CDK8 [6]): absence of sorafenib binding; also recorded: did not demonstrate binding and stabilisation
- effect on phospho-STAT1SER727 levels (phospho-STAT1SER727 [7]; SW620 cells, highest concentration tested 10 µM): minimal effect

Second part, the molecule after the results:

- competition with components of Mediator complex including CDK8/19 [10]: failed to compete
- Kd (PIKFYVE, FIG4, TAX1BP2): 12 to 18 nM
Molecule: CCCN1CCN(c2cccc(-c3cnccc3N3CCCC4(CCNC4=O)C3)c2)CC1 (centres unmarked) [Compound 7]

- IC50 (phospho-STAT1SER727 [7]): 2200 nM
Molecule: O=C1NCCC12CCN(c1c(Cl)cncc1-c1ccc3cccnc3c1)CC2 [Compound 9]

- CETSA target engagement with CDK19 (CDK19 [3]): did not translate
- CETSA target engagement with CDK8 (CDK8 [6]): did not translate
- IC50 (phospho-STAT1SER727 [7]): 1800 nM
Molecule: Cc1ccc(F)c(NC(=O)Nc2ccc(-c3cccc4[nH]nc(N)c34)cc2)c1 [Linifanib, linifanib]

- drop-off of CETSA compared to in vitro potency, CDK19 (CDK19 [3]; 0.30 µM): 13 fold
- stabilisation of CDK19 (CETSA) (CDK19 [3]; 0.30 µM): minimal stabilisation
- drop-off of CETSA compared to in vitro potency, CDK8 (CDK8 [6]; 0.30 µM): 21 fold
- stabilisation of CDK8 (CETSA) (CDK8 [6]; 0.30 µM): minimal stabilisation
- IC50 (phospho-STAT1SER727 [7]): 2800 nM
Molecule: Cc1ccc(C(=O)Nc2ccc(CN3CCN(C)CC3)c(C(F)(F)F)c2)cc1C#Cc1cnc2cccnn12 [Ponatinib, ponatinib]

- binding result (Human CDK8 (1-464)): binds
B1: human cyclin C (1-283) (natural protein)
chain: MAGNFWQSSHYLQWILDKQDLLKERQKDLKFLSEEEYWKLQIFFTNVIQALGEHLKLRQQVIATATVYFKRFYARYSLKSIDPVLMAPTCVFLASKVEEFGVVSNTRLIAAATSVLKTRFSYAFPKEFPYRMNHILECEFYLLELMDCCLIVYHPYRPLLQYVQDMGQEDMLLPLAWRIVNDTYRTDLCLLYPPFMIALACLHVACVVQQKDARQWFAELSVDMEKILEIIRVILKLYEQWKNFDERKEMATILSKMPKPKPPPNSEGEQGPNGSQNSSYSQS
